Counter-ions that a name gives are not always drawn.
Legend:
[1] = Blood brain barrier penetration after a single p.o. dose in mice; format: in vivo, mice (C57BL/6); settings: single 30 mg/kg (free base equivalent) p.o.
Procedure: For this purpose, 8-week old wild-type male mice (C57BL/6) were administered a single 30 mg/kg (free base equivalent) p.o. dose of reference or test compound by gavage (n=3 mice per time point). Dosing solutions were prepared in water. After dosing, mice were euthanized with CO2 at the following time points: 0-, 0.5-, 1-, and 4-hour post-dose. […] Similarly, brains were collected from each mouse. Plasma was derived by spinning whole blood at 2700 g for 10 minutes at 4° C. followed by storage on dry ice. Whole brains were washed in cold PBS to remove contaminating blood, blotted dry, flash frozen on dry ice, and ultimately stored at −80° C. until analysis. To prepare brain samples for analysis, 50-100 mg of tissue was homogenized in […]. Samples were then clarified by centrifugation. Next, 25 μl of the brain homogenate supernatant or 25 μl of plasma were combined with 25 μl of acetonitrile:water (95/5). […] Between 20 and 30 μl sample was injected for analysis. […] When Compound B was analyzed, Compound A was used as internal standard (150.1/130.1). For calculating drug concentrations, raw data for plasma (ng/mL) and brain (ng/g) was converted to nM using the molecular weight of respective compounds and assuming 1 g of tissue is equivalent to 1 mL volume. Concentration as a function of time was plotted in GraphPad Prism version 4.02.

GCase [2] = biological target: T1, GCase (Mus musculus, UniProt P17439); test: GCase enhancement in tissues of mice after 2-week oral dosing; format: in vivo, mice (C57BL/6); settings: for GCase Increase (-fold): nine doses over 2 weeks; for GCase enhancement in brain, spleen, liver and lung: compared to mice administered control or IFG-tartrate
T1 construct: Liver, spleen, lung, and brain tissues were removed; from tissue; host or cells: brain, spleen, liver and lung of wild-type C57BL/6 mice
T1 sequence (P17439 20-515): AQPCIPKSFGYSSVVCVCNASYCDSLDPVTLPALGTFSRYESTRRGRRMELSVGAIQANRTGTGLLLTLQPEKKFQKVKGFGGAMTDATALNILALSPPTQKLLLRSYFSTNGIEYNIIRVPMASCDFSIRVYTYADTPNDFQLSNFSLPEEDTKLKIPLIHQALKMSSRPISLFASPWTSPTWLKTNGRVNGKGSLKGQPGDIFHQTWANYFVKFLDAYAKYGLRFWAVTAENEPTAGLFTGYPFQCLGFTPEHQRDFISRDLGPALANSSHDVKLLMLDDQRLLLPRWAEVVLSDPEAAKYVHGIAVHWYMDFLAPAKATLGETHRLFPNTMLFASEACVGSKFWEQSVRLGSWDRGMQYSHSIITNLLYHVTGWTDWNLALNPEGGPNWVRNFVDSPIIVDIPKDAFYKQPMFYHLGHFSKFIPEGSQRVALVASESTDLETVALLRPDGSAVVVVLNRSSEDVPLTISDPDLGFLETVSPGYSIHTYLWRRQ
Procedure: The ability of orally administered test compounds (the hydrochloride salt form of Compound A and Compound B) to elevate GCase levels as compared to reference compound, IFG-tartrate, was assessed in mice. […] Seven animals were used per dose. The dosing solutions were prepared in water. Compounds were administered over 2 weeks as follows: week 1, Mon-Fri (On), Sat-Sun (Off); week 2, Mon-Thu (On); necropsy on Friday. Thus, a total of 9 doses (dosing solutions prepared fresh every day) were given to each mouse, with a 24-hour washout between the last dose and necropsy.
Plasma was collected by spinning blood at 2700 g for 10 minutes at 4° C. Liver, spleen, lung, and brain tissues were removed, washed in cold PBS, blotted dry, flash frozen on dry ice, and stored at −80° C. until analysis. GCase levels were measured by homogenizing approximately 50 mg tissue in 500 μl McIlvane (MI) buffer (100 mM sodium citrate, 200 mM sodium phosphate dibasic, 0.25% sodium taurocholate, and 0.1% Triton X-100, pH 5.2) at pH 5.2 for 3-5 seconds on ice with a micro homogenizer. Homogenates were then incubated at room temperature without and with 2.5 mM conduritol-B-epoxide (CBE) for 30 min. Finally, 3.7 mM 4-methylumbeliferryl-β-glucoside (4-MUG) substrate was added and incubated at 37° C. for 60 min. Reactions were stopped by addition of 0.4 M glycine, pH 10.6. Fluorescence was measured on a plate reader for 1 sec/well using 355 nm excitation and 460 nm emission. Total protein was determined in lysates using the MicroBCA kit according to the manufacturer's instructions. A 4-methylumbelliferone (4-MU) standard curve ranging from 1.0 nM to 50 μM was run in parallel for conversion of raw fluorescence data to absolute GCase activity (in the presence and absence of CBE) and expressed as nanomoles of 4-MU released per milligram of protein per hour (nmol/mg protein/hr). GCase levels and protein levels were calculated using Microsoft Excel (Redmond, Wash.) and GraphPad Prism version 4.02.

lysosomal GCase = biological target: T2, lysosomal GCase (Homo sapiens, UniProt P04062); test: In situ lysosomal GCase inhibition and washout assay in fibroblasts from a normal subject; format: cell-based; settings: for IC50: normal fibroblasts, 16-24 h incubation, PFBFDβGlu substrate; for In Situ Washout: washout time after treatment at IC90, single exponential fit
T2 construct: lysosomal GCase activity was assayed in situ using fibroblasts established from a normal subject; endogenous in cells; host or cells: fibroblasts established from a normal subject
T2 sequence (P04062 40-536): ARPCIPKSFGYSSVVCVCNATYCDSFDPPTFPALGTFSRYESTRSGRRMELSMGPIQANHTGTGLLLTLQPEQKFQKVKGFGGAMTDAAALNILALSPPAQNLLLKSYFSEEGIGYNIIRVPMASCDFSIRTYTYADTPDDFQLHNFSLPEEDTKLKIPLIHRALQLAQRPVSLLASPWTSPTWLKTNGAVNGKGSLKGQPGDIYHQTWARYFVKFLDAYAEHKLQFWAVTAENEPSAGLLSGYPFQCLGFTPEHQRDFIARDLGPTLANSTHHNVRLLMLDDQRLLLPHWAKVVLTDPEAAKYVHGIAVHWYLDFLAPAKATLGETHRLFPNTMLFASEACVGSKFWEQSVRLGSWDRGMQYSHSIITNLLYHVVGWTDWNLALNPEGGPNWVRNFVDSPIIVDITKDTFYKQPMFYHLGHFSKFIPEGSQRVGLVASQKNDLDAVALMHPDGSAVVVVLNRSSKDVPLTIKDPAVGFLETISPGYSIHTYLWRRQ
Procedure: For the dose-response assays, cells were incubated with the in situ substrate 5-(pentafluorobenzoylamino)fluorescein di-β-D-glucopyranoside (PFBFDβGlu) for 1 hour and subsequently lysed to determine the extent of substrate hydrolysis in the presence of compound. […] Inhibition was determined as the ratio of activity in the presence of compound to that in the absence of compound. […] Cells were washed extensively and incubated in drug-free medium to allow net compound efflux from cells. Cells were then tested for lysosomal GCase activity at 2 hour intervals over a total period of 8 hours following compound removal. The increase in activity over time was fitted with a single exponential function to determine the compound's washout time.

GCase [3] = biological target: T3, GCase (Homo sapiens, UniProt P04062); test: GCase activity enhancement (EC50, Emax; Table 2B); format: cell-based
T3 sequence (P04062 40-536): T2 sequence (P04062 40-536)

Row | GCase Increase (-fold) (GCase [2]; brain, 10 mg/kg p.o., Table 4A) | GCase Increase (-fold) (GCase [2]; brain, 100 mg/kg p.o., Table 4A) | GCase Increase (-fold) (GCase [2]; spleen, 10 mg/kg p.o., Table 4B) | GCase Increase (-fold) (GCase [2]; spleen, 100 mg/kg p.o., Table 4B) | EC50 (GCase [3]) [nM] | Emax (GCase [3]) [%] | Compound | brain levels ([1]; compared to hydrochloride salt form of Compound A) | GCase enhancement in brain, spleen, liver and lung (GCase [2]) | IC50 (lysosomal GCase) [nM] | In Situ Washout (lysosomal GCase) [h] | effect on GCase activity (GCase [3]) | enhancement of enzyme activity compared to IFG-tartrate (GCase [3]) | blood brain barrier crossing ([1]; compared to IFG)
1 | 1.3 -fold | 3.5 -fold | 1.4 -fold | 2.2 -fold | 9.6 ± 1 | 104 ± 3.4 | O[C@@H]1[C@@H](CCl)CNC[C@H]1O [Compound B, (3R,4R,5S)-5-(chloromethyl)piperidine-3,4-diol] | even higher levels of Compound B were detected in brain | statistically significant greater GCase enhancement | 121 ± 7 | 2.9 ± 0.22 | concentration-dependent increase in GCase activity | enhanced enzyme activity to the same maximum level at much lower concentration | –
2 | – | – | – | – | – | – | O[C@@H]1CNCC(CF)[C@H]1O (stereo in doubt) [Compound A, (3R,4R,5R)-5-(fluoromethyl)piperidine-3,4-diol] | – | – | – | – | – | – | crossed the blood brain barrier more readily as compared to IFG
3 | – | – | – | – | – | – | O[C@@H]1CNCC(CF)[C@H]1O (stereo in doubt) [Compound A-HCl, (3R,4R,5R)-5-(fluoromethyl)piperidine-3,4-diol hydrochloride] | – | statistically significant greater GCase enhancement | 17 ± 8 | 6.6 ± 0.12 | concentration-dependent increase in GCase activity | enhanced enzyme activity to the same maximum level at much lower concentration | –

Source: patent US20100261753A1, “METHODS FOR PREVENTING AND/OR TREATING DEGENERATIVE DISORDERS OF THE CENTRAL NERVOUS SYSTEM” (AMICUS THERAPEUTICS, INC., priority 2009, published 2010)
